{
  "source": "patent US8017144B2",
  "about": "“Controlled release polymeric compositions of bone growth promoting compounds” (Pfizer Inc., priority 2001, dated 2011)",
  "key": {"right femoral fracture": {"test_system": "right femoral fracture", "experiment": "Rat femoral transverse fracture model", "format": "in vivo, Male Sprague-Dawley rats", "conditions": "single percutaneous injection to fracture site immediately after surgery; 50 mg/ml, 300 ul, 15 mg/rat; day 21", "procedure": "Male Sprague-Dawley rats at 3 to 4 months of age were used. The animals were anesthetized with ketamine and xylazine at doses of 100 and 10 mg/kg, respectively. The right hindlimb of each rat was shaved and cleaned. A 1 cm incision was made just lateral to the patella and the femoral condyle was exposed. A Kirschner wire (0.045″ in diameter) was introduced into the intramedullary canal through the intercondylar portion to serve as an internal stabilization. The muscle incision was closed with Vicryl® and the skin incision was closed with stainless steel wound clips. The mid-diaphysis of the pinned femur was fractured by means of a three-point bending device driven by a dropped weight. The rats were permitted full weight-bearing and unrestricted activity after awakening from anesthesia. The test agents were administered on various days after surgery by percutaneous injection onto the fracture site. The animals were sacrificed on various days after treatment and the femurs were collected for analysis. Fracture healing was evaluated by using radiography, histomorphometry and biomechanical test. (See, e.g., F. Bonnarens and T. A. Einhorn, “Production of a standard closed fracture in laboratory animal bone,” Journal of Orthopaedic Research 2:97-101 (1984).)\nMale Sprague-Dawley rats at 3 to 4 months of age were subjected to right femoral fracture. […]"}, "[1]": {"test_system": "subperiosteum of the femur", "experiment": "Rat periosteal injection model", "format": "in vivo, Male Sprague-Dawley rats", "conditions": "single injection in a polymer formulation, day 15", "procedure": "Male Sprague-Dawley rats at 3 weeks of age were used. The rats were anesthetized with isoflurane inhalation ([…]) in a conduction chamber located in a fume hood. The right hindlimb of each rat was shaved and cleaned. A 25 G needle attached with a Hamilton syringe pre-filled with testing solution was used for the local injection. The solution was injected onto the subperiosteum of the anterior, mid-diaphyseal region of femur in a volume of 5 to 10 ul for various days. On day 15, the rats were sacrificed and the femurs were collected for analysis. (See, e.g., M. E. Joyce, A. B. Roberts, M. B. Sporn and M. Bolander, “Transforming growth factor-β and the initiation of chondrogenesis and osteogenesis in the rat femur,” The Journal of Cell Biology 110:2195-2207 (1990).) On day one, the right femurs of male Sprague-Dawley rats received single injection of vehicle or test compound in a polymer formulation. The test compound was the sodium salt of (3-(((4-tert-butyl-benzyl)-(pyridine-3-sulfonyl)-amino)-methyl)-phenoxy)-acetic acid. On day 15, all rats were sacrificed and the right femurs were collected for analysis. Periosteal bone induction was assessed by using radiography and dual-energy X-ray absorptiometry (DEXA)."}, "[2]": {"test_system": "1.5 cm segmental defect in the midulna", "experiment": "Dog ulnar segmental defect model", "format": "in vivo, dogs", "excerpt": "The ulnar segmental defect model was used to test the efficacy of a single dose of the test compound (which was the sodium salt of (3-(((4-tert-butyl-benzyl)-(pyridine-3-sulfonyl)-amino)-methyl)-phenoxy)-acetic acid) in a PLGH formulation ([…]). The protocol was modified as follows: With animals under general anesthesia, the foreleg was prepped and draped in sterile fashion. A lateral incision approximately 10 cm in length was made and the ulna was exposed extraperiostally. Periosteum was cut and moved to the proximal and distal parts of the incision. Then a 1.5 cm segmental defect was made in the midulna using a pendular saw. The radius and the remaining interosseal membrane were left intact. The defect site was irrigated with saline to remove bone debris. The site was then filled with test compound in a slow-release matrix formulation, as described above. The dogs were divided into the following groups.\nRadiographs of the forelimbs were obtained immediately following surgery and every two weeks thereafter until the termination of the study. Radiographs were graded on a 0 to 6 scale (Table 2)."}, "[3]": {"test_system": "osteotomy on the distal portion of the dog tibia", "experiment": "Canine tibial osteotomy model", "format": "in vivo, Beagle male dogs", "conditions": "RG502H/NMP, 8 weeks, sodium salt", "excerpt": "Normal fracture healing usually represents a biologically optimum healing process, as a result detecting an acceleration of healing in pre-clinical models that heal rapidly is both difficult and challenging. The test compound (which was the sodium salt of (3-(((4-tert-butyl-benzyl)-(pyridine-3-sulfonyl)-amino)-methyl)-phenoxy)-acetic acid) in a PLGH formulation (50% 50:50 PLGH (RG502H Grade)/50% NMP) was studied to determine its effect on accelerating healing in a rapidly healing canine osteotomy model. Enhancement of healing in this model supports potential applications of the test compound to heal normal fractures in humans since humans tend to heal fractures more slowly.\nBeagle male dogs 12±3 kg, 14 months of age were used for the study. Dogs were divided into four groups of three to four animals each.\nWith animals under general anesthesia, the hindleg was prepped and draped in sterile fashion. A lateral incision approximately 4 cm in length was made. Surgical osteotomy was made on the distal portion of the dog tibia using a Gigli saw. The defect was stabilized using an AO plate. The fibula and the remaining interosseal membrane was left intact and the defect site was irrigated with saline to remove bone debris. The site was then filled with carrier as described above. Following surgery, animals were allowed full weight-bearing activity, and water and food ad libitum. […]"}},
  "note": "Where “and” joins values, the source holds several entries; their conditions need not be identical. Equal values may be shown once.",
  "data": [
    {"smiles": "CC(C)(C)c1ccc(CN(Cc2cccc(OCC(=O)[O-])c2)S(=O)(=O)c2cccnc2)cc1.[Na+]", "note": "[test compound, (3-(((4-tert-butyl-benzyl)-(pyridine-3-sulfonyl)-amino)-methyl)-phenoxy)-acetic acid, sodium salt]", "values": [
      {"measurement": "calluses as assessed by radiography vs vehicle", "setting": "right femoral fracture", "result": "larger and denser calluses"},
      {"measurement": "bone mineral content (BMC) of the injected region of the femur by DEXA vs vehicle", "setting": "[1]", "result": "significantly increased"},
      {"measurement": "periosteal bone induction by radiography", "setting": "[1]; anterior aspect of right femur", "result": "new bone formation"},
      {"measurement": "efficacy in formulation containing RG503H Grade", "setting": "[2]; 50 mg/ml in 50% 50:50 PLGH (RG503H Grade)/50% NMP", "result": "did not work well"},
      {"measurement": "union compared to RG502H Grade formulation", "setting": "[2]; 50 mg/ml in 50% 50:50 PLGH (RG503H Grade)/50% NMP, union achieved in some dogs", "result": "delayed"},
      {"measurement": "treated animals healed, overall", "setting": "[2]; all treated groups vs none for vehicle controls", "result": "70-75%"},
      {"measurement": "remodeling of newly formed bone", "setting": "[2]; by week 24, slow release matrix formulation RG502H/NMP", "result": "remodeled back to the same shape and size as the contralateral bone"},
      {"measurement": "Complete rebridging/number of dogs", "setting": "[2]; group B: 50 mg (1 ml of 50 mg/ml formulation), RG502H/NMP", "result": "2/4"},
      {"measurement": "Complete rebridging/number of dogs", "setting": "[2]; group C: 10 mg (1 ml of 10 mg/ml formulation), RG502H/NMP", "result": "9/12"},
      {"measurement": "Radiographic response", "setting": "[2]; group C: 10 mg (1 ml of 10 mg/ml formulation), RG502H/NMP, two dogs", "result": "did not respond."},
      {"measurement": "Complete rebridging/number of dogs", "setting": "[2]; group D: 10 mg (0.2 ml of 50 mg/ml formulation), RG502H/NMP", "result": "3/4"},
      {"measurement": "rebridgement of defect after a single application", "setting": "[2]; groups B, C and D, slow release matrix formulation RG502H/NMP", "result": "complete rebridgement"},
      {"measurement": "Rebridging/number of dogs", "setting": "[3]; group C: 5 mg (0.5 ml of 10 mg/ml formulation)", "result": "Four out of four and 4/4"},
      {"measurement": "Rebridging/number of dogs", "setting": "[3]; group D: 25 mg (0.5 ml of 50 mg/ml formulation)", "result": "the other three showed significant healing and 3/4"}
    ]}
  ]
}
